# Assay results from ChEMBL document CHEMBL3399969, “Multifunctional scutellarin-rivastigmine hybrids with cholinergic, antioxidant, biometal chelating and neuroprotective properties for the treatment of Alzheimer's disease” (Bioorg Med Chem, 2015).
# Active and inactive are the calls of the source. No cut-off for these calls is given here.
# Assays:
# [1] = Antioxidant activity assessed as trolox equivalent of […]-induced radical scavenging activity by ORAC-FL method; assay type: physicochemical
# [2] = biological target: T1, Acetylcholinesterase (Rattus norvegicus, UniProt P37136); assay: Inhibition of rat cortex AChE using acetylthiocholine iodide as substrate after 15 mins by Ellman method
# T1 sequence (P37136 whole entry): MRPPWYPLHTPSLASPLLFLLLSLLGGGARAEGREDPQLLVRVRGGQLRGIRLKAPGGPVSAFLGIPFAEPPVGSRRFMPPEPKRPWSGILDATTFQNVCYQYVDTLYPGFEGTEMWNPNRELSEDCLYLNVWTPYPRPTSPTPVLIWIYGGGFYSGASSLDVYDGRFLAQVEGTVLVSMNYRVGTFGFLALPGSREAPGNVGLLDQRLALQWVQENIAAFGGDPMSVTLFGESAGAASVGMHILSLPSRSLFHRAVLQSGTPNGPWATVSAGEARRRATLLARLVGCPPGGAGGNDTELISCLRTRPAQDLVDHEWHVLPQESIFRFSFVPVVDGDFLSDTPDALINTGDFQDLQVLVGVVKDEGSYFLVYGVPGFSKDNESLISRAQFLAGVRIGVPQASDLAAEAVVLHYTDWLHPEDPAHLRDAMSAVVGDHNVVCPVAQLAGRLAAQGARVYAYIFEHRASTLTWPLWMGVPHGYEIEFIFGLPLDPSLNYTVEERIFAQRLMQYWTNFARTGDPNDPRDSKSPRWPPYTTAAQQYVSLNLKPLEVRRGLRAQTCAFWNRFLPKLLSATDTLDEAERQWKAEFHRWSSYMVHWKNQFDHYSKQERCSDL
# [3] = Inhibition of rat serum BuChE using butyrylthiocholine iodide as substrate after 15 mins by Ellman method; assay type: cell-free
# [4] = tested on: PC-12; assay: Neuroprotective effect against H2O2-induced rat PC12 cell injury assessed as cell viability at 10 uM incubated for 2 hrs prior to H2O2 challenge measured after 24 hrs by MTT assay (reference value: 57.6%); assay type: functional; details: read-out: Activity
# [5] = species: Rattus norvegicus; assay: Selectivity index, ratio of IC50 for rat serum BuChE to IC50 for rat cortex AChE; assay type: cell-free
# [6] = species: Mus musculus; assay: Cognitive enhancing effect in Kunming mouse assessed as inhibition of scopolamine-induced decreased spontaneous alternation behavior after 30 mins by T-maze test; assay type: functional, organism-based
# [7] = tested on: Mus musculus; assay: Cognitive enhancing effect in Kunming mouse assessed as inhibition of scopolamine-induced decreased spontaneous alternation behavior at 8 mg/kg after 30 mins by T-maze test; assay type: functional; parameters: scale not given: the % may be the effect or the level left
# [8] = tested on: Mus musculus; assay: Neuroprotective effect in Kunming mouse hippocampus assessed as reduction of scopolamine-induced vitality of AChE at 8 mg/kg by Ellman method; assay type: functional
# [9] = Metal chelating activity of the compound assessed as Al3+ complex formation after 30 mins by UV-Vis spectrometry; assay type: physicochemical; details: 0.5 h
# [10] = species: Mus musculus; assay: Neuroprotective effect in scopolamine-treated Kunming mouse hippocampus assessed as increase in vitality of ChAT by Ellman method; assay type: functional, organism-based
# [11] = species: Mus musculus; assay: Neuroprotective effect in Kunming mouse hippocampus assessed as reduction of scopolamine-induced vitality of AChE by Ellman method; assay type: functional, organism-based
# [12] = Metal chelating activity of the compound assessed as Cu2+ complex formation after 30 mins by UV-Vis spectrometry; assay type: physicochemical; details: 0.5 h
# [13] = tested on: Mus musculus; assay: Neuroprotective effect in scopolamine-treated Kunming mouse hippocampus assessed as increase in vitality of ChAT at 8 mg/kg by Ellman method; assay type: functional
# [14] = Metal chelating activity of the compound assessed as Fe2+ complex formation after 30 mins by UV-Vis spectrometry; assay type: physicochemical; details: 0.5 h
# [15] = Metal chelating activity of the compound assessed as Zn2+ complex formation after 30 mins by UV-Vis spectrometry; assay type: physicochemical; details: 0.5 h
# [16] = tested on: Mus musculus; assay: Toxicity in Kunming mouse assessed as change in behavior at 2 to 8 mg/kg; assay type: organism-based; parameters: dose 2-8 mg/kg; details: in vivo
# [17] = tested on: Mus musculus; assay: Toxicity in Kunming mouse assessed as change in behavior at 6 mg/kg; assay type: organism-based; parameters: dose 6 mg/kg; details: in vivo
# [18] = biological target: Acetylcholinesterase (Electrophorus electricus) (UniProt O42275); assay: Mixed-type inhibition of electric eel AChE using acetylthiocholine iodide as substrate at 0.5 to 1.5 uM after 15 mins by Lineweaver-Burk reciprocal plot analysis
# Sequence of Acetylcholinesterase (Electrophorus electricus) (O42275 24-633 limits assumed): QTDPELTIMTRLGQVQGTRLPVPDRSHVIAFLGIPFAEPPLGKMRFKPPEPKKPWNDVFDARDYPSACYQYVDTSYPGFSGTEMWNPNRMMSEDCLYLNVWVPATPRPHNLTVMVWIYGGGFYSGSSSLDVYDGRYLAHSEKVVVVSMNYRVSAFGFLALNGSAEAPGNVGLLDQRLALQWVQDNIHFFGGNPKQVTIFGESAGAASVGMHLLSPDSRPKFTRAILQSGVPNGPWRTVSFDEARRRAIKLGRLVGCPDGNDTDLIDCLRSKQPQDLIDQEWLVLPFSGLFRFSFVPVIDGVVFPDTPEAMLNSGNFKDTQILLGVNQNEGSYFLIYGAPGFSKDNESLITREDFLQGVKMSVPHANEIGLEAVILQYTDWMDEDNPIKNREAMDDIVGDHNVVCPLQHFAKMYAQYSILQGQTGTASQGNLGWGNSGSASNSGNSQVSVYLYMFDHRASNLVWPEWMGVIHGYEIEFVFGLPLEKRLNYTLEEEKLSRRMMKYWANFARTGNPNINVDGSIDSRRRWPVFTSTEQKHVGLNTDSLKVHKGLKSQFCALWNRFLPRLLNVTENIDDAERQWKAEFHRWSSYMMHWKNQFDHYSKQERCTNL
Structure (SMILES),Activity [1],IC50 [2] [µM],IC50 [3] [µM],viability at 10 µM [4] [%],Ratio IC50 [5],also measured
COc1cc2oc(-c3cccc(OC(=O)N4CCCCC4)c3)cc(=O)c2c(O)c1OC,1.1,> 100,> 100,–,–,–
COc1cc2oc(-c3cccc(OC(=O)N4CCCCC4)c3)cc(=O)c2c(OC)c1OC,0.31,45.7,26.8,72.5,0.6,–
CCN(C)C(=O)Oc1ccc(-c2cc(=O)c3c(O)c(OC)c(OC)cc3o2)cc1,1.1,2.1,38.1,78.3,18.1,–
CCN(C)C(=O)Oc1ccc(-c2cc(=O)c3c(OC)c(OC)c(OC)cc3o2)cc1,0.34,1.54,6.2,75.1,4,–
COc1cc2oc(-c3ccc(OC(=O)N4CCN(C)CC4)cc3)cc(=O)c2c(O)c1OC,1,5,> 100,–,> 20,–
CCN(CC)C(=O)Oc1ccc(-c2cc(=O)c3c(O)c(OC)c(OC)cc3o2)cc1,1.3,0.57,22.6,78.5,39.7,Activity [6]: Dose-dependent effect; Activity [7]: 68.7%; Activity [8]: 0.11 U/mg; Activity [9]: Not Active; Activity [10]: Dose-dependent effect; Activity [11]: Dose-dependent effect; Activity [12]: Not Active; Activity [13]: 45.2 U/mg; Activity [14]: Not Active; Activity [15]: Not Active; Activity [16]: Non-toxic; Activity [17]: Non-toxic; inhibition [18]: Active
COc1cc2oc(-c3cccc(OC(=O)N4CCOCC4)c3)cc(=O)c2c(O)c1OC,1.2,> 100,> 100,66.1,–,–
COc1cc2oc(-c3cccc(OC(=O)N4CCN(C)CC4)c3)cc(=O)c2c(O)c1OC,1.2,23.3,68.2,–,2.9,–
COc1cc2oc(-c3cccc(O)c3)cc(=O)c2c(O)c1OC,3.7,> 100,> 100,–,–,–
COc1cc2oc(-c3ccc(OC(=O)N4CCCCC4)cc3)cc(=O)c2c(O)c1OC,1.1,17.8,> 100,79.6,> 5.6,–
CCN(CC)C(=O)Oc1cccc(-c2cc(=O)c3c(O)c(OC)c(OC)cc3o2)c1,1.3,10.3,34.5,–,3.3,–
COc1cc2oc(-c3ccc(OC(=O)N4CCOCC4)cc3)cc(=O)c2c(OC)c1OC,0.27,68.3,> 100,–,> 1.5,–
COc1cc2oc(-c3ccc(OC(=O)N(C)C)cc3)cc(=O)c2c(OC)c1OC,0.32,8.24,7.3,73.5,0.9,–
COc1cc2oc(-c3cccc(OC(=O)N(C)C)c3)cc(=O)c2c(OC)c1OC,0.28,37.3,28.3,69.3,0.8,–
COc1cc2oc(-c3cccc(OC(=O)N4CCOCC4)c3)cc(=O)c2c(OC)c1OC,0.29,> 100,> 100,–,–,–
CCN(C)C(=O)Oc1cccc(-c2cc(=O)c3c(OC)c(OC)c(OC)cc3o2)c1,0.32,7.37,38.1,70.8,5.2,–
COc1cc2oc(-c3ccc(OC(=O)N(C)C)cc3)cc(=O)c2c(O)c1OC,1.2,17.3,61.5,76.7,3.6,–
COc1cc2oc(-c3cccc(OC(=O)N(C(C)C)C(C)C)c3)cc(=O)c2c(OC)c1OC,0.3,87.5,> 100,–,> 1.1,–
